Article PMC3785448, “Effect of Selectively Introducing Arginine and D-Amino Acids on the Antimicrobial Activity and Salt Sensitivity in Analogs of Human Beta-Defensins” (PLoS ONE, 2013)
≈ marks a conversion by molar mass, not a printed value. Bridge positions count the residues as written; N and C are the ends. Square brackets hold non-standard residues; d marks the D form. Peptide text beside a SMILES is read from it.

Experiments:
[1] = tested on: C. albicans; assay: Candidacidal activity, minimum fungicidal concentration; format: cell-based; settings: minimum fungicidal concentration = no viable colonies; 10^6 cells/ml in 10 mM phosphate buffer pH 7.4, 2 h at 30°C, plated 24 h; average of three independent experiments in duplicate
Experimental: Minimum fungicidal concentrations (MFC) of the peptides were determined by growing C. albicans aerobically in yeast extract-peptone-dextrose (YEPD) medium at 30°C. After 20 h, 0.5 ml from this suspension was subcultured for 2 h in 20 ml of YEPD broth to obtain a mid-log-phase culture. Cells were harvested by centrifugation, washed with 10 mM phosphate buffer (PB), pH 7.4, and resuspended in the same buffer, and the concentration was adjusted to 10^6 cells/ml. Aliquots of diluted cells were incubated with peptides in 100 µl volume at 30°C for 2 h. Cell suspensions were diluted and spread on YEPD agar plates and the plates were incubated for 24 h at 30°C. Colonies were counted, and the concentrations of the peptides at which no viable colonies were formed were taken as the Minimum fungicidal concentration (MFC). Cell survival was expressed as a percentage of the control. Percentage killing was calculated as [(colonies from control cells- colonies from treated cells)/colonies from control cells x 100].
The average of results from three independent experiments done with duplicate samples was taken for the calculation of MFC. In control experiments, cells were incubated with only buffer.

[2] = tested on: E. coli (MG 1655); assay: Antibacterial activity, lethal concentration (colony count); format: cell-based, Escherichia coli; settings: lethal concentration = no viable colonies; 10^6 cfu/ml in 10 mM sodium phosphate buffer pH 7.4, 2 h at 37°C, plated 18 h; average of three independent experiments in duplicate, variation <5%
Experimental: (§1) Bacterial strains used were E. coli (MG 1655), S. aureus (ATCC 8530), and P. aeruginosa (NCTC 6751). The antibacterial activity of the peptides was examined in sterile 96 well plates at a ﬁnal volume of 100 µl as follows: Bacteria were grown in nutrient broth (Bacto Difco nutrient broth) to mid-log phase and diluted to 10^6 colony forming units (cfu)/ml in 10 mM sodium phosphate buffer (pH 7.4). Bacteria were incubated with different concentration of peptides for 2 h at 37°C and suitably diluted aliquots were spread on nutrient agar plates. After the plates were incubated at 37°C for 18 h, colonies formed were counted. Lethal concentration (LC) is the concentration of the peptides at which no viable colonies were formed. Cell survival is expressed as a percentage of the control. Percentage killing was calculated as: [(colonies from control cells- colonies from treated cells)/colonies from control cells x 100]. The LC determined was average of three independent experiments done in duplicate. In control experiments, cells were incubated with only buffer.

[3] = tested on: Gram-negative bacteria; assay: Effect of divalent cations on antibacterial activity at LC; format: cell-based; settings: peptide at its LC; for Antibacterial activity in the presence of 1 mM Ca2+, Gram-negative bacteria: 1 mM CaCl2 in buffer
Experimental: (§2) To determine the effect of salt on antibacterial activity, different concentrations of NaCl was included in the incubation buffer at their LC. Different concentrations of divalent cations Ca^2+ and Mg^2+ (as their chloride salts), were included in the buffer to determine their effect on activity at lethal concentration (LC) of the peptides. In control experiments, cells were incubated with only buffer. Data are presented as mean ± standard deviation computed for three independent replicates.
(§3) Figure 2 Effect of divalent cations on antibacterial activity. Mid-log phase bacteria (10^6 CFU/mL) were incubated with peptides at their LC in the absence or presence of the indicated concentrations of CaCl2 and MgCl2. The data are mean values of three independent experiments and the error bars represent standard deviation of the measurements. Standard deviation values ranged between 0.2-2.7.

[4] = tested on: P. aeruginosa; assay: as above; format: cell-based; settings: peptide at its LC; for Loss in activity at 5 mM Mg2+ against P. aeruginosa: 5 mM MgCl2, as compared to HC-1(R)
Experimental: as §2, §3

[5] = tested on: S. aureus; assay: as above; format: cell-based; settings: peptide at its LC, 1 mM CaCl2
Experimental: as §2, §3

[6] = tested on: S. aureus (ATCC 8530); assay: Antibacterial activity, lethal concentration (colony count); format: cell-based; settings: lethal concentration = no viable colonies; 10^6 cfu/ml in 10 mM sodium phosphate buffer pH 7.4, 2 h at 37°C, plated 18 h; average of three independent experiments in duplicate, variation <5%
Experimental: as §1

[7] = tested on: P. aeruginosa (NCTC 6751); assay: as above; format: cell-based; settings: lethal concentration = no viable colonies; 10^6 cfu/ml in 10 mM sodium phosphate buffer pH 7.4, 2 h at 37°C, plated 18 h; average of three independent experiments in duplicate, variation <5%
Experimental: as §1

[8] = tested on: bacteria; assay: Antibacterial activity, comparison of peptides; format: cell-based; settings: from LC values
Experimental: as §1

SMILES: CC[C@H](C)[C@@H]1NC(=O)[C@H](CCCCN)NC(=O)[C@H]([C@@H](C)O)NC(=O)[C@H](Cc2ccccc2)NC(=O)[C@H]([C@@H](C)CC)NC(=O)[C@@H]2CCCN2C(=O)[C@@H](NC(=O)[C@H](C)N)CSSC[C@@H](C(=O)N[C@@H](CCCNC(=N)N)C(=O)O)NC(=O)[C@H](CCCCN)NC(=O)[C@H](C)NC(=O)[C@H](CCCNC(=N)N)NC(=O)CNC(=O)[C@H](CCCNC(=N)N)NC(=O)[C@H](Cc2ccc(O)cc2)NC(=O)[C@H]([C@@H](C)O)NC(=O)CNC(=O)[C@H](CCC(N)=O)NC1=O [HC-1(R)] (H-ACPIFTKIQGTYRGRAKCR-OH; disulfide 2-18)
- MFC C. albicans [1]: 2.5 µM (≈ 5.42 µg/mL)

SMILES: CC[C@@H](C)[C@H]1NC(=O)[C@H](CCCCN)NC(=O)[C@H]([C@@H](C)O)NC(=O)[C@H](Cc2ccccc2)NC(=O)[C@@H]([C@H](C)CC)NC(=O)[C@@H]2CCCN2C(=O)[C@@H](NC(=O)[C@H](C)N)CSSC[C@@H](C(=O)N[C@@H](CCCNC(=N)N)C(=O)O)NC(=O)[C@H](CCCCN)NC(=O)[C@H](C)NC(=O)[C@@H](CCCNC(=N)N)NC(=O)CNC(=O)[C@@H](CCCNC(=N)N)NC(=O)[C@H](Cc2ccc(O)cc2)NC(=O)[C@H]([C@@H](C)O)NC(=O)CNC(=O)[C@H](CCC(N)=O)NC1=O [[D]HC-1(R)] (H-ACP[dI]FTK[dI]QGTY[dR]G[dR]AKCR-OH; disulfide 2-18; N-terminus assumed)
- LC E. coli [2]: 5 µM
- Antibacterial activity in the presence of 1 mM Ca2+, Gram-negative bacteria [3]: is not attenuated
- Loss in activity at 5 mM Mg2+ against P. aeruginosa [4]: more
- Loss in activity against S. aureus at 1 mM Ca2+ [5]: not
- MFC C. albicans [1]: 5 µM (≈ 10.8 µg/mL)
- LC S. aureus [6]: 5 µM
- LC P. aeruginosa [7]: 5 µM

SMILES: CC[C@@H](C)[C@H]1NC(=O)[C@H](CCC(N)=O)NC(=O)[C@H](CCC(=O)O)NC(=O)[C@H](CCC(=O)O)NC(=O)[C@H](CCCCN)NC(=O)[C@@H]2CCCN2C(=O)[C@H](CC(C)C)NC(=O)[C@@H](NC(=O)[C@@H](N)CO)CSSC[C@@H](C(=O)N[C@H](CCCNC(=N)N)C(=O)N[C@H](CCCNC(=N)N)C(=O)N[C@@H](CCCCN)C(=O)N[C@@H](CCCNC(=N)N)C(=O)O)NC(=O)[C@H](CCCCN)NC(=O)[C@@H](CCCNC(=N)N)NC(=O)CNC(=O)[C@@H](CCCNC(=N)N)NC(=O)[C@H]([C@@H](C)O)NC(=O)[C@H](CO)NC(=O)[C@H](CCCCN)NC(=O)CNC1=O [[D]HC-3(R)] (H-SCLPKEEQ[dI]GKST[dR]G[dR]KC[dR][dR]KR-OH; disulfide 2-18; N-terminus assumed)
- LC E. coli [2]: 2.5 µM
- Antibacterial activity in the presence of 1 mM Ca2+, Gram-negative bacteria [3]: loss in activity is observed
- Antibacterial activity in the presence of 5 mM Ca2+, Gram-negative bacteria ([3]; 5 mM CaCl2 in buffer): further attenuated
- Loss in activity at 5 mM Ca2+ against P. aeruginosa ([4]; 5 mM CaCl2, as compared to [D]HC-1(R)): more pronounced
- Loss in activity at 5 mM Mg2+ against P. aeruginosa [4]: more
- MFC C. albicans [1]: 2.5 µM (≈ 6.54 µg/mL)
- LC S. aureus [6]: 2.5 µM
- LC P. aeruginosa [7]: 2.5 µM
- Fold more active against bacteria as compared to HC-1(R) and [D]HC-1(R) [8]: 2 fold
